Experimental data taken from ChEMBL document CHEMBL3886543, “Quinoline derivatives useful as CB-1 inverse agonists” (2016).

Legend:
Cannabinoid receptor 1 [1] = target: T1, Cannabinoid receptor 1 (Homo sapiens, UniProt P21554); assay: Membranes were purchased from Perkin Elmer.
Cannabinoid receptor 2 [2] = target: T2, Cannabinoid receptor 2 (Homo sapiens, UniProt P34972); assay: Membranes were prepared as described in FELDER, C. C., et al., Molecular Pharmacology, 1992, pp 838-845, Vol. 42.
Cannabinoid receptor 1 [3] = target: T1, Cannabinoid receptor 1; assay: (§1) cAMP Assay: The following mixtures and buffer solutions were prepared: (a) Buffer 1: HBSS (Mediatech Cat#21-023-CV) with 5 mM HEPES (1 mM stock, Gibco BRL Cat#15630-056) and 0.1% BSA (7.5% stock, Invitrogen Cat#15260-037); (b) Buffer 2: 0.5 mM IBMX (200 mM stock in DMSO, Sigma 15879) in Buffer 1; (c) 1 uM cAMP Standard (50 uM stock, Perkin Elmer Cat# AD0262) diluted in Buffer 2 and serially diluted in Buffer 2, 12 doses at 1/2 dilutions resulting in a dose range of 1 uM to 0.5 nM; (d) d2 labelled cAMP (CisBio HTRF Detection Kit Cat #62AM4PEB reconstituted with 6 ml dH2O) diluted 1/20 with lysis buffer (CisBio HTRF Detection Kit Cat #62AM4PEB); (e) anti-cAMP (CisBio HTRF Detection Kit Cat #62AM4PEB reconstituted with 5 ml dH2O) diluted 1/20 with lysis buffer (CisBio HTRF Detection Kit Cat #62AM4PEB); and (f) Forskolin (Sigma Cat# F6886, 10 mM in DMSO) diluted first in DMSO to 1 mM and then to 1.5 uM in Buffer 2.; format: functional
Cannabinoid receptor 2 [4] = target: T2, Cannabinoid receptor 2; assay: as §1; format: functional

T1 sequence (P21554 whole entry): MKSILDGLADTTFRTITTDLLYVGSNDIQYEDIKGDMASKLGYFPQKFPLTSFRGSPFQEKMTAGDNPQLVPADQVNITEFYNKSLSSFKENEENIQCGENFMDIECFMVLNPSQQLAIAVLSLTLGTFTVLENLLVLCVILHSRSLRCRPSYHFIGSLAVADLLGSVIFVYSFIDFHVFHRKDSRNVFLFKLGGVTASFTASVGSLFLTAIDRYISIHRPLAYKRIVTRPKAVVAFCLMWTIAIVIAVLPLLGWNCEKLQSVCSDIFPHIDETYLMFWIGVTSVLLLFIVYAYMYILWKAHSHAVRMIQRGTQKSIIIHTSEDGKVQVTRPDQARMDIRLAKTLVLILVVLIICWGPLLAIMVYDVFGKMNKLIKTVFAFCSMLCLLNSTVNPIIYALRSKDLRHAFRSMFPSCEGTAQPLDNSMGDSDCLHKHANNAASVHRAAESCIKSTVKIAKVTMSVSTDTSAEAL
T2 sequence (P34972 whole entry): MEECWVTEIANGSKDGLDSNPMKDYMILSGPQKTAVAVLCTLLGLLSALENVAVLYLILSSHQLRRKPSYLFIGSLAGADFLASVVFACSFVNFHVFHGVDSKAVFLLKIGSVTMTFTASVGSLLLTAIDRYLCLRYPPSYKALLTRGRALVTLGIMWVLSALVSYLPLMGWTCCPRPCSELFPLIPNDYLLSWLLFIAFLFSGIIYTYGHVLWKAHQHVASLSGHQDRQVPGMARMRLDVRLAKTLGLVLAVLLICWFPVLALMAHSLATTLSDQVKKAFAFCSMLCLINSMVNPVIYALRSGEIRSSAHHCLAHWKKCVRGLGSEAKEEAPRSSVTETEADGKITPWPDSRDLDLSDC

| EC50 (Cannabinoid receptor 1 [1]) | EC50 (Cannabinoid receptor 2 [2]) | EC50 (Cannabinoid receptor 1 [3]) | EC50 (Cannabinoid receptor 2 [4]) | SMILES |
| --- | --- | --- | --- | --- |
| 0.0041 µM |  |  |  | Clc1ccc(C(c2ccc(Cl)cc2)c2ccc3nccc(/C=C/c4ccccc4)c3c2)cc1 |
| > 2.5 µM |  |  |  | Cn1c(=O)cc(CCc2cccc(Cl)c2)c2cc(C(c3ccc(Cl)cc3)c3nccs3)ccc21 (centres undefined) |
| 0.0521 µM |  |  |  | OC(c1ccc(Cl)cc1)(c1ccc(Cl)cc1)c1ccc2nccc(/C=C/c3ccccc3)c2c1 |
| 0.0151 µM | > 5 µM |  |  | O=c1cc(/C=C/c2ccc(C(F)(F)F)cc2)c2cc(C(c3ccc(Cl)cc3)c3cccs3)ccc2[nH]1 (centres undefined) |
|  |  | > 14 µM | > 14 µM | O=S(=O)(N1CCC(Nc2ccnc3c(NC4CCN(S(=O)(=O)C(F)(F)F)CC4)cc(C(c4ccc(Cl)cc4)c4ccc(Cl)cc4)cc23)CC1)C(F)(F)F |
| 0.022 µM | > 5 µM |  |  | O=c1cc(/C=C/c2cccc(F)c2)c2cc(C(c3ccc(Cl)cc3)c3ccsc3)ccc2[nH]1 (centres undefined) |
| 1.87 µM |  |  |  | COc1ccc(C(O)(c2ccc3nccc(/C=C/c4ccccc4)c3c2)c2nccs2)cc1 (centres undefined) |
|  |  | 0.068 µM | > 10 µM | CCOC(=O)CCCOc1ccc(Nc2cc(=O)[nH]c3ccc(C(c4ccc(Cl)cc4)c4ccc(Cl)cc4)cc23)cc1 |
| 0.332 µM |  |  |  | O=c1cc(CCc2cccc(Cl)c2)c2cc(C(c3ccc(Cl)cc3)c3nccs3)ccc2[nH]1 (centres undefined) |
|  |  | 0.397 µM | > 10 µM | O=c1cc(/C=C/c2ccc(C(F)(F)F)cc2)c2cc(C(c3ccc(Cl)cc3)c3nccs3)ccc2[nH]1 (centres undefined) |
|  |  | 0.015 µM | > 10 µM | O=c1cc(Nc2ccc(Cc3ccccc3)cc2)c2cc(C(c3ccc(Cl)cc3)c3ccc(Cl)cc3)ccc2[nH]1 |
| 0.0044 µM |  |  |  | O=c1cc(NC2CCN(S(=O)(=O)C(F)(F)F)CC2)c2cc(C(c3ccc(Cl)cc3)c3nccs3)ccc2[nH]1 (centres undefined) |
|  |  | > 10 µM | > 10 µM | N=C(N)N1CCC(Nc2cc(=O)[nH]c3ccc(C(c4ccc(Cl)cc4)c4ccc(Cl)cc4)cc23)CC1 |
| > 2.5 µM |  |  |  | O=c1cc(CCc2cccc(Cl)c2)c2cc(C(O)(c3ccc(Cl)cc3)c3nccs3)ccc2[nH]1 (centres undefined) |
|  |  | 0.01 µM | > 10 µM | O=c1cc(Nc2ccc(F)c(Cl)c2)c2cc(C(c3ccc(Cl)cc3)c3ccc(Cl)cc3)ccc2[nH]1 |
|  |  | 0.005 µM | > 10 µM | CC(C)(C)OC(=O)CN1CCC(Nc2cc(=O)[nH]c3ccc(C(c4ccc(Cl)cc4)c4ccc(Cl)cc4)cc23)CC1 |
| 0.0551 µM | > 5 µM |  |  | Clc1ccc(C(c2ccc3nccc(/C=C/c4ccccc4)c3c2)c2nccs2)cc1 (centres undefined) |
| 0.101 µM |  |  |  | OC(c1ccc(Cl)cc1)(c1ccc2nccc(/C=C/c3ccccc3)c2c1)c1cccs1 (centres undefined) |
| 0.0346 µM |  |  |  | O=c1cc(/C=C/c2ccccc2)c2cc(C(c3ccc(Cl)cc3)c3nccs3)ccc2[nH]1 (centres undefined) |
| 0.0973 µM |  |  |  | Clc1ccc(C(c2ccc3nccc(/C=C/c4ccccc4)c3c2)c2cccs2)cc1 (centres undefined) |
| 0.0012 µM | 0.053 µM |  |  | O=c1cc(NC2CCN(S(=O)(=O)C(F)(F)F)CC2)c2cc(C(c3ccc(Cl)cc3)c3ccc(Cl)cc3)ccc2[nH]1 |
| 0.223 µM |  |  |  | OC(c1ccc(Cl)cc1)(c1ccsc1)c1ccc2nccc(/C=C/c3ccccc3)c2c1 (centres undefined) |

| SMILES | EC50 (Cannabinoid receptor 1 [1]) | EC50 (Cannabinoid receptor 2 [2]) | EC50 (Cannabinoid receptor 1 [3]) | EC50 (Cannabinoid receptor 2 [4]) |
| --- | --- | --- | --- | --- |
| O=c1cc(/C=C/c2ccccc2)c2cc(C(c3ccc(Cl)cc3)c3ccc(Cl)cc3)ccc2[nH]1 | 0.0358 µM |  |  |  |
